# In ChEMBL document CHEMBL3994658, “Synthesis, molecular docking and α-glucosidase inhibition of 2-((5,6-diphenyl-1,2,4-triazin-3-yl)thio)-N-arylacetamides” (Bioorg Med Chem Lett, 2017):
# Assay: Inhibition of Saccharomyces cerevisiae alpha-glucosidase using p-nitrophenyl-alpha-D-glucopyranoside as substrate preincubated for 15 mins followed by substrate addition measured after 30 mins by spectrophotometric method
row,Compound,IC50
1,COc1ccc(NC(=O)CSc2nnc(-c3ccccc3)c(-c3ccccc3)n2)cc1,49.4 µM
2,O=C(CSc1nnc(-c2ccccc2)c(-c2ccccc2)n1)Nc1ccc(Cl)cc1,14.1 µM
3,O=C(CSc1nnc(-c2ccccc2)c(-c2ccccc2)n1)Nc1ccc(Oc2ccccc2)cc1,25.2 µM
4,Cc1cccc(NC(=O)CSc2nnc(-c3ccccc3)c(-c3ccccc3)n2)c1,42.5 µM
5,O=C(CSc1nnc(-c2ccccc2)c(-c2ccccc2)n1)Nc1ccccc1,71.1 µM
6,CCOc1ccc(NC(=O)CSc2nnc(-c3ccccc3)c(-c3ccccc3)n2)cc1,26.3 µM
7,O=C(CSc1nnc(-c2ccccc2)c(-c2ccccc2)n1)Nc1ccc(Cl)cc1Cl,36.8 µM
8,O=C(CSc1nnc(-c2ccccc2)c(-c2ccccc2)n1)Nc1ccc(F)cc1,50.6 µM
9,O=C(CSc1nnc(-c2ccccc2)c(-c2ccccc2)n1)Nc1cc(Cl)ccc1Cl,28 µM
10,Cc1ccc(NC(=O)CSc2nnc(-c3ccccc3)c(-c3ccccc3)n2)cc1,52 µM
11,COc1ccc(NC(=O)CSc2nnc(-c3ccccc3)c(-c3ccccc3)n2)c([N+](=O)[O-])c1,47 µM
12,O=C(CSc1nnc(-c2ccccc2)c(-c2ccccc2)n1)Nc1ccc([N+](=O)[O-])cc1,12.5 µM

# More lines, in order of falling IC50, values ahead:
row,IC50,Compound
1,72.7 µM,Cc1ccccc1NC(=O)CSc1nnc(-c2ccccc2)c(-c2ccccc2)n1
2,67.2 µM,Cc1ccc(NC(=O)CSc2nnc(-c3ccccc3)c(-c3ccccc3)n2)c(C)c1
3,45.6 µM,Cc1ccc(NC(=O)CSc2nnc(-c3ccccc3)c(-c3ccccc3)n2)c([N+](=O)[O-])c1
4,34.9 µM,O=C(CSc1nnc(-c2ccccc2)c(-c2ccccc2)n1)Nc1ccc(C(F)(F)F)cc1
5,16 µM,CCOc1ccccc1NC(=O)CSc1nnc(-c2ccccc2)c(-c2ccccc2)n1
